From US20050009840A1 (SUGEN, INC., priority 2003, published 2005)

What follows are molecules tested against T1, HGFR (Homo sapiens, UniProt P08581) (assay: HGFR continuous-coupled spectrophotometric assay). Conditions: at 1 pM; Table 6, library procedure 41; read-out: % Inhibition (percent c-MET inhibition).
T1 construct: purchased Upstate 14-526
Format: biochemical

T1 sequence (P08581 974-1390 limits assumed): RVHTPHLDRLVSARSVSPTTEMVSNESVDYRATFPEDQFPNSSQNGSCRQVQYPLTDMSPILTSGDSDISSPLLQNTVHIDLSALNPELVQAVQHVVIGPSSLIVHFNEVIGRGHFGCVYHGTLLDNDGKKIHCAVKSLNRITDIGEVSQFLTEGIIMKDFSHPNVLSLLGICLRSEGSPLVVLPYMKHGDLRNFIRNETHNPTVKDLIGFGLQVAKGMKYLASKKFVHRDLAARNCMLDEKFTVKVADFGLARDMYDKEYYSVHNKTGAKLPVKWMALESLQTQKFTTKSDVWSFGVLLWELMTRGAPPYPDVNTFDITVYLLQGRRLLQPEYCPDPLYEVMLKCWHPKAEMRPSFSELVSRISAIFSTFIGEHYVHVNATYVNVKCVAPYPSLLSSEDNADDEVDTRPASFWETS

inhibition at 1 pM [%] | SMILES
26 | Nc1ncc(C(=O)NCCCN2CCOCC2)cc1OCc1c(Cl)cccc1Cl [Example L-177]
30 | Nc1ncc(C(=O)NCc2ccc(S(N)(=O)=O)cc2)cc1OCc1c(Cl)cccc1Cl [Example L-178]
24 | CN1CCN(CCCNC(=O)c2cnc(N)c(OCc3c(Cl)cccc3Cl)c2)CC1 [Example L-179]
26 | Nc1ncc(C(=O)NCCCO)cc1OCc1c(Cl)cccc1Cl [Example L-180]
31 | Nc1ncc(C(=O)NCCN2CCOCC2)cc1OCc1c(Cl)cccc1Cl [Example L-181]
27 | Nc1ncc(C(=O)NC(CO)Cc2ccc(Cl)cc2)cc1OCc1c(Cl)cccc1Cl [Example L-182]
32 | COc1ccccc1CNC(=O)c1cnc(N)c(OCc2c(Cl)cccc2Cl)c1 [Example L-183]
27 | Nc1ncc(C(=O)NC2CCN(Cc3ccccc3)C2)cc1OCc1c(Cl)cccc1Cl [Example L-184]
29 | Nc1ncc(C(=O)NCCc2c[nH]cn2)cc1OCc1c(Cl)cccc1Cl [Example L-185]
30 | CN(C)c1ccc(CNC(=O)c2cnc(N)c(OCc3c(Cl)cccc3Cl)c2)cc1 [Example L-186]
30 | Nc1ncc(C(=O)NCCc2ccc(S(N)(=O)=O)cc2)cc1OCc1c(Cl)cccc1Cl [Example L-187]
39 | NC(=O)C1CCCN(C(=O)c2cnc(N)c(OCc3c(Cl)cccc3Cl)c2)C1 [Example L-188]
35 | Nc1ncc(C(=O)NC2CCSC2=O)cc1OCc1c(Cl)cccc1Cl [Example L-189]
35 | CC(=O)NCCNC(=O)c1cnc(N)c(OCc2c(Cl)cccc2Cl)c1 [Example L-190]
38 | CN(C)CC(C)(C)CNC(=O)c1cnc(N)c(OCc2c(Cl)cccc2Cl)c1 [Example L-191]
37 | N#CC1(c2ccccc2)CCN(C(=O)c2cnc(N)c(OCc3c(Cl)cccc3Cl)c2)CC1 [Example L-193]
35 | Nc1ncc(C(=O)N2CCC(O)CC2)cc1OCc1c(Cl)cccc1Cl [Example L-194]
37 | Nc1ncc(C(=O)NCc2ccc(O)cc2)cc1OCc1c(Cl)cccc1Cl [Example L-195]
34 | Nc1ncc(C(=O)N2CCN(c3ccccn3)CC2)cc1OCc1c(Cl)cccc1Cl [Example L-196]
36 | Nc1ncc(C(=O)NCc2ccccc2Br)cc1OCc1c(Cl)cccc1Cl [Example L-197]
59 | COc1ccc(CNC(=O)c2cnc(N)c(OCc3c(Cl)cccc3Cl)c2)c(OC)c1 [Example L-198]
33 | Nc1ncc(C(=O)NCCc2ccccc2F)cc1OCc1c(Cl)cccc1Cl [Example L-199]

Same assay, conditions: at 50 nM; Table 5, library procedure 40; read-out: % inhibition (percent c-MET inhibition)

SMILES | inhibition at 0.05 µM [%]
CC(CN(C)C)NC(=O)c1ccc(-c2cnc(N)c(OC(C)c3c(Cl)ccc(F)c3Cl)c2)cc1 [Example L-138] | 83
CC(C)OCCNC(=O)c1ccc(-c2cnc(N)c(OC(C)c3c(Cl)ccc(F)c3Cl)c2)cc1 [Example L-140] | 141
COC(=O)CN(C)C(=O)c1ccc(-c2cnc(N)c(OC(C)c3c(Cl)ccc(F)c3Cl)c2)cc1 [Example L-145] | 77
CC(Oc1cc(-c2ccc(C(=O)NCc3ccc(C(F)(F)F)nc3)cc2)cnc1N)c1c(Cl)ccc(F)c1Cl [Example L-148] | 62
CC(Oc1cc(-c2ccc(C(=O)NCCCc3c[nH]nc3O)cc2)cnc1N)c1c(Cl)ccc(F)c1Cl [Example L-150] | 81
CC(Oc1cc(-c2ccc(C(=O)NCC3(N(C)C)CCOCC3)cc2)cnc1N)c1c(Cl)ccc(F)c1Cl [Example L-155] | 66
CC(Oc1cc(-c2ccc(C(=O)NCCc3nc(-c4ccncc4)c[nH]3)cc2)cnc1N)c1c(Cl)ccc(F)c1Cl [Example L-166] | 67
Cc1noc([C@H]2CC[C@H](CNC(=O)c3ccc(-c4cnc(N)c(O[C@@H](C)c5c(Cl)ccc(F)c5Cl)c4)cc3)CC2)n1 [Example L-176] | 51

The next lines start with the values.

inhibition at 0.05 µM [%] | SMILES
80 | CC(Oc1cc(-c2ccc(C(=O)N3CCC(N(C)C)C3)cc2)cnc1N)c1c(Cl)ccc(F)c1Cl [Example L-123]
77 | CC(Oc1cc(-c2ccc(C(=O)N(C)C)cc2)cnc1N)c1c(Cl)ccc(F)c1Cl [Example L-125]
52 | CCN(C)C(=O)c1ccc(-c2cnc(N)c(OC(C)c3c(Cl)ccc(F)c3Cl)c2)cc1 [Example L-126]
82 | CCCN1CCN(C(=O)c2ccc(-c3cnc(N)c(OC(C)c4c(Cl)ccc(F)c4Cl)c3)cc2)CC1 [Example L-129]
60 | CC(Oc1cc(-c2ccc(C(=O)N(C)C3CCCC3)cc2)cnc1N)c1c(Cl)ccc(F)c1Cl [Example L-130]
61 | Cc1ccnc(NC(=O)c2ccc(-c3cnc(N)c(OC(C)c4c(Cl)ccc(F)c4Cl)c3)cc2)c1 [Example L-131]
68 | CC(Oc1cc(-c2ccc(C(=O)NCCc3cccnc3)cc2)cnc1N)c1c(Cl)ccc(F)c1Cl [Example L-133]
76 | CC(Oc1cc(-c2ccc(C(=O)N3CCN(C(C)C)CC3)cc2)cnc1N)c1c(Cl)ccc(F)c1Cl [Example L-134]
76 | COCCN1CCN(C(=O)c2ccc(-c3cnc(N)c(OC(C)c4c(Cl)ccc(F)c4Cl)c3)cc2)CC1 [Example L-135]
61 | CC(Oc1cc(-c2ccc(C(=O)N3CCC(C(=O)c4ccccc4)CC3)cc2)cnc1N)c1c(Cl)ccc(F)c1Cl [Example L-136]
78 | CCN(CC)CCN1CCN(C(=O)c2ccc(-c3cnc(N)c(OC(C)c4c(Cl)ccc(F)c4Cl)c3)cc2)CC1 [Example L-137]
60 | CC1CCC(NC(=O)c2ccc(-c3cnc(N)c(OC(C)c4c(Cl)ccc(F)c4Cl)c3)cc2)CC1 [Example L-139]
79 | CC(Oc1cc(-c2ccc(C(=O)N3CCC(CO)CC3)cc2)cnc1N)c1c(Cl)ccc(F)c1Cl [Example L-141]
72 | CC(Oc1cc(-c2ccc(C(=O)N3CCC(CCO)CC3)cc2)cnc1N)c1c(Cl)ccc(F)c1Cl [Example L-142]
59 | CC(C)CN(C)C(=O)c1ccc(-c2cnc(N)c(OC(C)c3c(Cl)ccc(F)c3Cl)c2)cc1 [Example L-143]
71 | Cc1cccc(CN(C)C(=O)c2ccc(-c3cnc(N)c(OC(C)c4c(Cl)ccc(F)c4Cl)c3)cc2)n1 [Example L-144]
89 | CC(Oc1cc(-c2ccc(C(=O)N3CCN(CC(=O)N(C)C)CC3)cc2)cnc1N)c1c(Cl)ccc(F)c1Cl [Example L-146]
96 | CC(Oc1cc(-c2ccc(C(=O)N3CCN(C4CCN(C)CC4)CC3)cc2)cnc1N)c1c(Cl)ccc(F)c1Cl [Example L-147]
58 | CC(Oc1cc(-c2ccc(C(=O)N3CCC(Oc4ccccc4)CC3)cc2)cnc1N)c1c(Cl)ccc(F)c1Cl [Example L-151]
95 | CC(Oc1cc(-c2ccc(C(=O)N3CCS(=O)(=O)CC3)cc2)cnc1N)c1c(Cl)ccc(F)c1Cl [Example L-153]

inhibition at 0.05 µM [%] | SMILES
77 | CC(Oc1cc(-c2ccc(C(=O)NCCN3[C@H](C)CCC[C@@H]3C)cc2)cnc1N)c1c(Cl)ccc(F)c1Cl (stereo partly drawn) [Example L-154]
73 | CC(Oc1cc(-c2ccc(C(=O)NC3CCOCC3)cc2)cnc1N)c1c(Cl)ccc(F)c1Cl [Example L-156]
77 | C#CCCN1CCN(C(=O)c2ccc(-c3cnc(N)c(OC(C)c4c(Cl)ccc(F)c4Cl)c3)cc2)CC1 [Example L-157]
63 | CC(Oc1cc(-c2ccc(C(=O)Nc3ccc(-n4ccnc4)cc3)cc2)cnc1N)c1c(Cl)ccc(F)c1Cl [Example L-158]
78 | CC(Oc1cc(-c2ccc(C(=O)NCC(c3cccnc3)N(C)C)cc2)cnc1N)c1c(Cl)ccc(F)c1Cl [Example L-159]
79 | CC(Oc1cc(-c2ccc(C(=O)N3CCC(c4cccnc4)C3)cc2)cnc1N)c1c(Cl)ccc(F)c1Cl [Example L-161]
66 | CC(Oc1cc(-c2ccc(C(=O)NCCC3CCOCC3)cc2)cnc1N)c1c(Cl)ccc(F)c1Cl [Example L-162]
83 | CC(Oc1cc(-c2ccc(C(=O)N3CCN(CCS(C)(=O)=O)CC3)cc2)cnc1N)c1c(Cl)ccc(F)c1Cl [Example L-163]
61 | CC(Oc1cc(-c2ccc(C(=O)NC(CO)c3cccnc3)cc2)cnc1N)c1c(Cl)ccc(F)c1Cl [Example L-164]
88 | CC(Oc1cc(-c2ccc(C(=O)N3CCN(CC4CCN(C)CC4)CC3)cc2)cnc1N)c1c(Cl)ccc(F)c1Cl [Example L-165]
66 | CCNC(=O)c1ccc(-c2cnc(N)c(OC(C)c3c(Cl)ccc(F)c3Cl)c2)cc1 [Example L-167]
90 | CC(Oc1cc(-c2ccc(C(=O)N3CCNC(=O)C3)cc2)cnc1N)c1c(Cl)ccc(F)c1Cl [Example L-168]
79 | COC1CCN(C(=O)c2ccc(-c3cnc(N)c(OC(C)c4c(Cl)ccc(F)c4Cl)c3)cc2)CC1 [Example L-169]
77 | CC(Oc1cc(-c2ccc(C(=O)NCCCN(C)C3CCCCC3)cc2)cnc1N)c1c(Cl)ccc(F)c1Cl [Example L-170]
69 | CC(Oc1cc(-c2ccc(C(=O)NCCN(C)C3CCCCC3)cc2)cnc1N)c1c(Cl)ccc(F)c1Cl [Example L-171]
79 | CC(Oc1cc(-c2ccc(C(=O)N3CCC(CO)C3)cc2)cnc1N)c1c(Cl)ccc(F)c1Cl [Example L-172]
63 | CC(Oc1cc(-c2ccc(C(=O)NCC3CCOCC3)cc2)cnc1N)c1c(Cl)ccc(F)c1Cl [Example L-173]
68 | C[C@H](Oc1cc(-c2ccc(C(=O)N[C@H]3CC[C@H](CO)CC3)cc2)cnc1N)c1c(Cl)ccc(F)c1Cl [Example L-174]
60 | CC(Oc1cc(-c2ccc(C(=O)N3CCC(COCC4CC4)CC3)cc2)cnc1N)c1c(Cl)ccc(F)c1Cl [Example L-175]

Same assay, conditions: read-out: % Inhibition (percent c-MET inhibition)

SMILES | inhibition at 1 pM [%]
CCC(=O)C(c1ccccc1)C1CCN(C(=O)c2cnc(N)c(OCc3c(Cl)cccc3Cl)c2)CC1 [Example L-192] | 44
